Results on 1 molecule are retold here after article PMC11799239, “Mechanistic insights into Rho/MRTF inhibition-induced apoptotic events and prevention of drug resistance in melanoma: implications for the involvement of pirin” (Frontiers in Pharmacology, 2025).

The test concerns the target T1, pirin (Homo sapiens, UniProt O00625).
T1 construct: gene PIR
T1 sequence (O00625 1-290): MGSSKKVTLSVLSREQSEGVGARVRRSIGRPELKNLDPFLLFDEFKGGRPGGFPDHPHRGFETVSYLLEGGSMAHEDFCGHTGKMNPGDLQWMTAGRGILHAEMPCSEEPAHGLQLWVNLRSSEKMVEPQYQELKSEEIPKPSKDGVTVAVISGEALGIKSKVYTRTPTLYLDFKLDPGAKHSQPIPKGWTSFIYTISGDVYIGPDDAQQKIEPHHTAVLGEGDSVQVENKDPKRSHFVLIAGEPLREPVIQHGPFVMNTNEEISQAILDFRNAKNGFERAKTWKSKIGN
Nature of the test: fluorescence polarization competition with a pirin FP reporter compound. Conditions: read-out: CCG-257081 (S enantiomer) [drawing 1]. Format: binding. Background: In fluorescence polarisation assays a small probe gives low polarisation when free and higher when bound to something large.

The structures appear in SMILES notation.

Regarding `O=C(Nc1ccc(Cl)cc1)[C@@H]1CN(C(=O)c2cc(F)cc(-c3ccncc3)c2)CC(F)(F)C1` [(S) CCG-257081], the IC50 was determined as 8 µM.
